The values that follow come from US6110907A, “Synthesis of platinum complexes and uses thereof” (Dalian Institute of Chemical Physics, Chinese Academy of …, priority 1998, dated 2000).

The conditions of series [1]: background statement; cited from earlier work.
For the next series, the system named is Hela. Kind of series: In vitro antitumor activity, MTT assay, Hela. The series is classed as cell-based, human. Particulars: 48 hours. Here is the method:
(§1) Drugs: Drugs to be tested were dissolved in complete medium at twice the highest concentration to be used, followed by filter (0.22 μm) sterilization. A series of log dilutions were made of each drug solution using complete medium and stored at r.t. until use.
(§2) Cells: L1210, H-522 (human lung), HT-29 (human colon), Hela, CC3 (human cervix) were obtained from the American Type Culture Collection (ATCC). CNE-1 and CNE-2 (human nasopharyngeal) were obtained from The Hong Kong Cancer Institute, The Chinese University of Hong Kong.
(§3) In vitro drug exposure: Trypsinised cells were adjusted to a concentration of 3×10^4 cells/ml in complete medium and for each drug to be tested, 0.1 ml of the cell suspension was added to each of 48 wells of a 96-well microculture plate. The plate was then incubated at standard conditions for 24 hours in order to allow the cells to attach to the bottom of the well. To each well of the control cultures, 0.1 ml of complete medium was added. […]
(§4) MTT assay: The MTT (tetrazolium) assay was used to determine the growth-inhibitory effects of different drugs. […] The amount of reduced MTT was determined by spectrophotometric means (540 nm).
(§5) Data analysis: The mean OD for all 48 control wells was determined. For each concentration of each drug, the mean OD of the 6 wells was determined and the "Percent of Control" values were determined and plotted. […]
A general note: Tetrazolium dyes change colour on reduction, which living cells bring about.

The next series relates to L1210. Put plainly: In vitro antitumor activity, MTT assay, L1210. The series is classed as cell-based, mouse. Particulars: L1210, 48 hours. Here is the method: as §1, §2, §3, §4, §5
Another series concerns CNE-1. Kind of series: In vitro antitumor activity, MTT assay, CNE-1. It counts as cell-based, human. Particulars: CNE-1, 48 hours. On the procedure:
as §1, §2, §3, §4, §5

Another series deals with HT29. Put plainly: In vitro antitumor activity, MTT assay, HT-29. The series is classed as cell-based, human. As to conditions: HT29, 48 hours. On the procedure: as §1, §2, §3, §4, §5
A further series relates to CC3. Kind of series: In vitro antitumor activity, MTT assay, CC3. Particulars: CC3, 48 hours. The series is classed as cell-based, human. On the procedure:
as §1, §2, §3, §4, §5

In another series the test system is H522. Put plainly: In vitro antitumor activity, MTT assay, H522. The series is classed as cell-based, human. Particulars: H522, 48 hours. Here is the method: as §1, §2, §3, §4, §5
For a further series, the system named is CNE-2. Put plainly: In vitro antitumor activity, MTT assay, CNE-2. The series is classed as cell-based, human. Particulars: CNE-2, 48 hours. Here is the method: as §1, §2, §3, §4, §5
For series [2] the following is noted: cited from earlier work.
The next series deals with kidney. Kind of series: 5-Day Parenteral Acute Toxicity Trial, kidney histopathology. It counts as in vivo, ICR mice. Particulars: 1/12 LD10/day for 5 days, i.p., per animal. Here is the method: (§6) Conditions: Temperature: 22° C.±3° C.; Relative humidity: 30-70 T; Light: 12:12. Animals were housed in twos or threes depending on group numbers.
(§7) Histopathology of liver and kidney were examined for each animal.

The test system of the next series is liver. Kind of series: 5-Day Parenteral Acute Toxicity Trial, liver histopathology. As to conditions: 1/12 LD10/day for 5 days, i.p., per animal. It counts as in vivo, ICR mice. Here is the method:
as §6, §7

In series [3] the test system is ICR mice. Put plainly: In vivo toxicity, LD50 (second series). Particulars: male, intraperitoneal. On the procedure: Animals: ICR mice, male, 30 g, 10 animals per test/control group.
Dose: Test/control drug were dissolved in normal saline. Four doses, each increasing by 10-20% were injected intraperitoneally into mice. 10 mice were used for each dose point.

The test system of series [4] is ICR mice. Put plainly: Toxicity testing, LD50 (Example 14). The series is classed as in vivo. As to conditions: in 0.9% NaCl, observed for 6 days. Here is the method: The toxicity tests used ICR mice (30-40 g), each group containing 12-13 mice. […] The test and control compounds were dissolved in 0.9% NaCl to an appropriate concentration.

Like-named read-outs stand apart in the source and are kept apart here.

One may read the LD50 as the dose at which mortality reaches 50%. Consider `O=C(O)C1C2CCC(O2)C1C(=O)O` (centres unmarked) [corresponding dicarboxylic acid], for which, in [1], the LD50 is listed as 14 mg/kg.
On to `O=C1OC(=O)C2C3CCC(O3)C12` (centres unmarked) [demethyl cantharidin], for which, in series [1], the LD50 was 4 mg/kg.
The IC50 is the concentration at which inhibition is half-maximal. Turning to `N.N.[Cl][Pt][Cl]` [Cisplatin, cisplatin], the IC50 in the series with Hela was found to be 8.56 µM; in the series on L1210 it was 1.63 µM; in the series on CNE-1, 6.36 µM; in the series on HT29, 38.3 µM; in the series with CC3, 6.25 µM; in the series on H522 it was 12.1 µM. Also, in the series with CNE-2, the IC50 was found to be 6.04 µM.
Regarding `C[C@@]12C(=O)OC(=O)[C@]1(C)[C@H]1CC[C@@H]2O1` [Cantharidin, cantharidin], the side effects entry in series [2] (background statement) was “nausea and vomiting, dysphagia, hematemesis, gross hematuria and dysuria”; in series [2] (background statement, listed as cantharidin), “severe side-effects such as nausea, vomiting and diarrhoea”. In addition, the “KIDNEY Normal” value with kidney (female) and with kidney (male) was “√” in each case. Further, the LD50 in [1] is given as 1 mg/kg. The “LIVER Normal” value in the series with liver (female) and with liver (male) was “√” throughout.
The term Solubility denotes the dissolved amount per volume that the medium holds. Lower therefore signals a poorly soluble substance. Consider `N.N.O=C([O-])C1(C(=O)[O-])CCC1.[Pt+2]` [Carboplatin, carboplatin], for which the LD50 in the series with ICR mice [3] is on record as 203.20 mg/kg; with ICR mice [4], 190 mg/kg. Besides, the IC50 worked out at 244 µM with Hela; 48.8 µM in the series on L1210; 174 µM in the series with CNE-1; 734 µM with HT29; 205 µM in the series on CC3; 287 µM in the series with H522. Further, the IC50 in the series with CNE-2 is 126 µM. Under “pH 6”, this compound registered a Solubility in water of 10.00 mg/mL. Also, the Solubility (water) was about 10 mg/mL. Also, the side effects entry in series [2] (in vivo) was “strongly irritates the gastrointestinal tract”. For the same compound, the “KIDNEY Normal” value with kidney (female) and in the series with kidney (male) was “√” in each case. Further, the “LIVER Normal” value in the series with liver (female) and in the series on liver (male) was “√” throughout.
